Assay results: patent publication US10683553B2, “Method for determining sensitivity to simultaneous inhibitor against PARP and Tankyrase” (THE ASAN FOUNDATION, priority 2015, dated 2020)

Tests used:
Type in all cases: cell-based
[1] = tested on: RKO human colon cancer cell line; experiment: DNA damage by r-H2AX immunocytochemistry; conditions: RKO (p53 normal, LIG4 mutant); 50 μM, 48 hours
Description: In order to analyze the degree of DNA damage of Compound A, which is a novel PARP/Tankyrase simultaneous inhibitor, when the p53 gene is a normal type and the LIG4 gene is a mutant type, the present inventors treated a novel PARP/Tankyrase simultaneous inhibitor, Compound A, and the competitive drug PARP inhibitor, olaparib, in the RKO human colon cancer cell line in which the p53 gene is a normal type and the LIG4 gene is a mutant type, and the DNA damage was confirmed by the immunochemical method as the expression level of r-H2AX. The conditions and methods of the experiment were as follows: RKO human colon cancer cell line in which the p53 gene is a normal type and the LIG4 gene is a mutant type was cultured in RPMI1640 (10% FBS, 1% penicillin/streptomycin) and cultured in a 60 mm plate at 1×10^5 per well for 24 hours at 37° C. […] The r-H2AX antibody was diluted at a ratio of 1:100 in 1% BSA, reacted overnight at 4° C., washed three times for 10 minutes with TBS-T buffer, and the secondary antibody (Alexa Fluor®488 fitc) was diluted at a ratio of 1:100 in 1% BSA, reacted at room temperature for 2 hours, and then washed with TBS-T A buffer three times for 10 minutes, and stained with DAPI to confirm the expression level of r-H2AX under a fluorescence microscope.

[2] = tested on: HCT116 human colon cancer cell line; experiment: Trypan blue apoptosis after siRNA knockdown of DNA repair genes; conditions: HCT116 p53 normal, LIG4 siRNA knockdown; 25 μM and 50 μM, 48 hours
Description: In order to analyze the degree of apoptosis of Compound A, which is a novel PARP/Tankyrase simultaneous inhibitor, depending on the presence or absence of the p53 gene and the presence or absence of the DNA repair gene, the present inventors reduced gene expression by an ATR, XLF, XRCC4 and LIG4 siRNA knockdown method known as a DNA repair gene in the human colon cancer cell line HCT116 in which the p53 normal gene is present, and then treated with Compound A, which is a novel PARP/Tankyrase simultaneous inhibitor. Then, the number of cells was measured by trypan blue staining assay to confirm the degree of apoptosis. As the experimental conditions and methods, the HCT116 p53 null human colon cancer cell line in which the p53 gene is normal and the HCT116 and p53 gene are deficient is cultured in RPMI1640 (10% FBS, 1% penicillin/streptomycin), and 1×10^5 per well was cultured at 37° C. for 24 hours in a 60 mm plate. ATR, XLF, XRCC4 and LIG4 (SEQ ID NO: 4; ATR siRNA 5′-GAGUUCUCAGAAGUCAACC-3′, SEQ ID NO: 5; XLF siRNA 5′-[…]-3′, SEQ ID NO: 6; XRCC4 siRNA 5′-[…]-3′, SEQ ID NO: 7; LIG4 siRNA 5′-GGGAGUGUCUCAUGUAAUA-3′) were infused into cells by means of Lipofectamin 2000 (Invitrogen), and knocked down at 37° C. for 48 hours. […] After 48 hours of culturing, the number of cells was measured by trypan blue staining and the degree of apoptosis was confirmed.

[3] = tested on: LoVo human colon cancer cell line; experiment: Trypan blue apoptosis with overexpressed mutant p53 or normal LIG4; conditions: 25 μM and 50 μM, 48 hours
Description: As in Example 12, in order to analyze the degree of apoptosis of Compound B, which is a novel PARP/Tankyrase simultaneous inhibitor, according to the expression of a mutant type p53 and a normal type LIG4 when the p53 genotype is a normal type and an LIG4 genotype is a mutant type, the present inventors treated a novel PARP/Tankyrase simultaneous inhibitor, Compound B, and the competitive drug PARP inhibitor, olaparib, while overexpressing the p53 mutant type and the LIG4 normal type in the LoVo human colon cancer cell line in which the p53 gene is a normal type and an LIG4 genotype is a mutant type. Then, the number of cells was measured by trypan blue staining assay to confirm the degree of apoptosis. The conditions and methods of the above experiment were the same as the methods of RKO cell culturing and transfection methods of Example 12. Compound B, which is a novel PARP/Tankyrase simultaneous inhibitor, and olaparib, which is a competitive drug PARP inhibitor, were treated with each of 25 μM and 50 μM. After 48 hours of culturing, the number of cells was measured by trypan blue staining assay and the degree of apoptosis was confirmed.

| Structure (SMILES) | DNA damage: expression level of r-H2AX (immunocytochemistry) [1] | degree of apoptosis (trypan blue cell count) [2] | degree of apoptosis (trypan blue cell count) ([3]; LoVo overexpressing LIG4 normal type gene vs control group (empty)) | degree of apoptosis (trypan blue cell count) ([3]; LoVo overexpressing p53 mutant type gene vs control group (empty)) |
| --- | --- | --- | --- | --- |
| CCOc1cc(CN(C)C)cc2[nH]c(=O)c3c(c12)NCCC3 [Compound A, 8-[(dimethylamino)methyl]-10-ethoxy-1,2,3,4-tetrahydrobenzo[h][1,6]naphthyridin-5(6H)-one] | expression of r-H2AX was increased | apoptosis is significantly increased |  |  |
| N#Cc1ccc(N2CCN(Cc3ccc4c5c(c(=O)[nH]c4c3)CCCN5)CC2)nc1 [Compound B, 6-{4-[(5-oxo-1,2,3,4,5,6-hexahydrobenzo[h][1,6]naphthyridin-8-yl)methyl]piperazin-1-yl}nicotinonitrile] |  |  | apoptosis was reduced | apoptosis was reduced |
